The record followed here is ChEMBL document CHEMBL1133310, “Naphthalene carboxamides as inhibitors of human cytomegalovirus DNA polymerase” (Bioorg Med Chem Lett, 2000).

The subject of one assay is HFF. Kind of assay: Antiviral activity in a cell-based plaque reduction assay, using an HFF cell line and the Davis strain of HCMV. Particulars: Homo sapiens. Format: functional. (Plaque reduction counts the foci of infection that form in a cell layer.)
For `O=C(NCc1ccc(Cl)cc1)c1cc2cccc(O)c2cc1O`, the IC50 was 600 nM.
Still for that read-out and setting: then `COc1ccc2cc(O)c(C(=O)NCc3ccc([N+](=O)[O-])cc3)cc2c1`, with 3700 nM; and `O=C(NCc1ccc(Cl)cc1)c1cc2cc(O)ccc2cc1O`, with 1000 nM; and `O=C(NCc1ccc(Cl)cc1)c1ccc2ccccc2c1O`, with more than 20000 nM.
With `COc1ccc2cc(O)c(C(=O)Nc3nc4c(Cl)cccc4s3)cc2c1`, the IC50 is more than 5000 nM.
Regarding `O=C(NCCc1ccc(Cl)cc1)c1cc2ccccc2cc1O`, the IC50 was more than 20000 nM.
Still for that read-out and setting: then `O=C(NCc1ccc([N+](=O)[O-])cc1)c1cc2cccc(O)c2cc1O`, with 1500 nM; and `Nc1nc2c(ncn2COC(CO)CO)c(=O)[nH]1` [GANCICLOVIR], with 600 nM.

The target in a further assay is T1, DNA polymerase alpha catalytic subunit (Homo sapiens, UniProt P09884).
T1 sequence (P09884 whole entry): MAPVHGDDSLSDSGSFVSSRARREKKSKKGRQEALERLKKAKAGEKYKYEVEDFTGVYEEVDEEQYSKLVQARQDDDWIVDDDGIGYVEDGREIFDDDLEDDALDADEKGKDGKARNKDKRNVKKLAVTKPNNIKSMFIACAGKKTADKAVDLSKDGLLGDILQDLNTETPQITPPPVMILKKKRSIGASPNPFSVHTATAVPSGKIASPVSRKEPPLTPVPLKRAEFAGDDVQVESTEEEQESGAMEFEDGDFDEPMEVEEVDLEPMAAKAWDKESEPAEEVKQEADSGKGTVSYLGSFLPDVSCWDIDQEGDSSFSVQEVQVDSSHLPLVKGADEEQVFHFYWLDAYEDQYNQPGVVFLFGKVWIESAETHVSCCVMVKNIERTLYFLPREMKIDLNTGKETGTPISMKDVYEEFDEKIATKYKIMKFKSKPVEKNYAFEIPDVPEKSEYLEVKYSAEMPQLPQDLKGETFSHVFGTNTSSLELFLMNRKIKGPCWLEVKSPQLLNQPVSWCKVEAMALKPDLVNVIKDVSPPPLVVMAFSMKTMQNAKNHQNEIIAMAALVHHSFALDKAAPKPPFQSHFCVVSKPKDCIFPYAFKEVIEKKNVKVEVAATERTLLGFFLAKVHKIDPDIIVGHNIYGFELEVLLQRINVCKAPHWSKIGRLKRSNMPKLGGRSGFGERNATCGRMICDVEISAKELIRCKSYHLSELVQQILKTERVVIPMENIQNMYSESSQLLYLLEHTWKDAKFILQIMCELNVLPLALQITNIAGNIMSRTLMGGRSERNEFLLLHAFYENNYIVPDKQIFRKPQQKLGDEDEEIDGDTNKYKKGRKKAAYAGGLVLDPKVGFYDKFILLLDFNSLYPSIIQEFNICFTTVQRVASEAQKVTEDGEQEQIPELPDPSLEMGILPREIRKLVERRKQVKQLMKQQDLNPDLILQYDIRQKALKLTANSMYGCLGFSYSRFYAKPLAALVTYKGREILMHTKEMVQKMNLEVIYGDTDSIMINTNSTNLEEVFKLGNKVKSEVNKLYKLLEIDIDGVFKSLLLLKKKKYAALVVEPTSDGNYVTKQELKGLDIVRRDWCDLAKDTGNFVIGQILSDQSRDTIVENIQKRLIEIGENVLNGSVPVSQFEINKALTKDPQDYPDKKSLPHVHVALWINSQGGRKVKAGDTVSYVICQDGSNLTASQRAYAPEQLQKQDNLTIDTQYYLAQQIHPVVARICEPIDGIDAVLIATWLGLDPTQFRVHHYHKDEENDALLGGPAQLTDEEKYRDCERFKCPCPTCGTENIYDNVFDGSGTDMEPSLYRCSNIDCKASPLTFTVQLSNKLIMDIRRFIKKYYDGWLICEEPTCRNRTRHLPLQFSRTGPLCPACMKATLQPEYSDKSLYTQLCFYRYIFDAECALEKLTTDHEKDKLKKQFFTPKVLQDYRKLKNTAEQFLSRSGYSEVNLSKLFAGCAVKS
Kind of assay: Compound was evaluated for the inhibitory activity against Human alpha polymerase.
Conditions: not given
`O=C(Nc1cccc([N+](=O)[O-])c1)c1cc2ccccc2cc1O` displayed a half-inhibitory concentration (IC50) of 32000 nM.

For orientation: IC50 means the concentration needed to halve the response being measured. A lower IC50 goes with greater potency in that assay.
